Measurements from patent US12029818B2 (CRITITECH, INC., priority 2020, dated 2024).

Tests used:
[1] = Shake-flask solubility in organic solvent/water mixtures; assay type: physicochemical; conditions: methanol and ethanol in water
Description: The drug was added in excess to each solution prepared in duplicate.

[2] = PXRD solid form and 14 day room temperature stability study
[3] = Specific surface area by BET sorptometry
Description: SSA determination analyses were conducted on a Porous Materials, Inc., Automated BET Sorptometer BET-202A according to manufacturer's instructions.

[4] = Particle size distribution (PSD) by laser diffraction, Malvern Mastersizer 3000; assay type: physicochemical
Description: PSD analyses were conducted on a Malvern Mastersizer™ 3000 using the Aero S™ dispersion unit according to manufacturer's instructions.

SMILES: CS(=O)(=O)CCNCc1ccc(-c2ccc3ncnc(Nc4ccc(OCc5cccc(F)c5)c(Cl)c4)c3c2)o1 [Lapatinib, N-(3-chloro-4-{[(3-fluorophenyl)methyl]oxy}phenyl)-6-[5-({[2-(methylsulfonyl)ethyl]amino}methyl)-2-furanyl]-4-quinazolinamine]
- Solubility dependence on organic solvent concentration [1]: concentration dependent solubility
- Crystalline/amorphous form by PXRD [2]: crystalline
- SSA ([3]; listed as Lapatinib Raw): 2.33 m^2/g
- SSA ([3]; listed as unprocessed material): 1.60 m^2/g
- PSD: Volume Dv-10 [4]: 0.839 μm
- PSD: Volume Dv-50 [4]: 6.59 μm
- PSD: Volume Dv-90 [4]: 335 μm
